According to patent publication US8993542B2, “Methods of treating viral infections” (priority 2008, dated 2015):

Legend:
HIV = experiment: microbe, parasite or virus in culture; type: cell-based
HIV-1IIIB = experiment: Two-drug combination antiviral assay in CEM cells (CPE), MacSynergy II; type: cell-based; details: for Antagonism Volume, Result 1 / Synergy Volume, Result 1 / Antagonism Volume, Result 2 / Antagonism Volume, Result 3 / Mean Antagonism Volume (n = 3) / Mean Synergy Volume (n = 3) / Synergy Volume, Result 2 / Synergy Volume, Result 3: in combination with CMX157, CEM-SS cells, 95% confidence

OC[C@@H]1CC[C@H](n2cnc3c(O)ncnc32)O1 [ddI, 2′,3′-dideoxyinosine]
IC50 (HIV; Human immunodeficiency virus 1, PANEL 1, WT): 5.54 µM | IC50 (HIV; Human immunodeficiency virus 1, PANEL 2, WT): 5.57 µM | IC50 (HIV; Human immunodeficiency virus 1, PANEL 3, 6 TAMs, no 184): 8.76 µM | IC50 (HIV; Human immunodeficiency virus 1, PANEL 6, 6 TAMs + 184): 11.3 µM | IC50 (HIV; Human immunodeficiency virus 1, PANEL 7, 184V): 7.57 µM | IC50 (HIV; Human immunodeficiency virus 1, PANEL 9, 69ins, no 184): 22.2 µM | IC50 (HIV; Human immunodeficiency virus 1, PANEL 12, 69ins + 184): 24.3 µM | IC50 (HIV; Human immunodeficiency virus 1, PANEL 14, 65R, no 184): 9.17 µM | IC50 (HIV; Human immunodeficiency virus 1, PANEL 15, 65R + 184V): 14.3 µM | IC50 (HIV; Human immunodeficiency virus 1, PANEL 17, L74V): 8.94 µM | IC50 (HIV; Human immunodeficiency virus 1, PANEL 19, L74V + M184V): 11.1 µM | IC50 (HIV; Human immunodeficiency virus 1, PANEL 26, 151M, no 184): 63.2 µM | IC50 (HIV; Human immunodeficiency virus 1, PANEL 28, 151M + 184): 58 µM | IC50 (HIV; Human immunodeficiency virus 1, PANEL 29, L74V − SDM): 8.14 µM | IC50 (HIV; Human immunodeficiency virus 1, PANEL 30, M184V − SDM): 6.76 µM | IC50 (HIV; Human immunodeficiency virus 1, PANEL 31, K65R − SDM): 11 µM | IC50 (HIV; Human immunodeficiency virus 1, PANEL 33, T215Y): 6.29 µM | IC50 (HIV; Human immunodeficiency virus 1, PANEL 34, T215Y + M184V): 7.88 µM | IC50 (HIV; Human immunodeficiency virus 1, PANEL 35, M41L + T215Y): 6.29 µM | IC50 (HIV; Human immunodeficiency virus 1, PANEL 37, M41L + T215Y + M184V): 10.1 µM | IC50 (HIV; Human immunodeficiency virus 1, PANEL 38, M41L + L210W + T215Y): 7.5 µM | IC50 (HIV; Human immunodeficiency virus 1, PANEL 39, M41L + L210W + T215Y): 5.9 µM | IC50 (HIV; Human immunodeficiency virus 1, PANEL 40, M41L + L210W + T215Y + M184V): 8.18 µM | IC50 (HIV; Human immunodeficiency virus 1, PANEL 41, M41L + L210W + T215Y + M184V): 8.64 µM | IC50 (HIV; Human immunodeficiency virus 1, PANEL 42, D67N + K70R): 6.57 µM | IC50 (HIV; Human immunodeficiency virus 1, PANEL 44, D67N + K70R + T215F + K219E + M184V): 8.65 µM | IC50 (HIV; Human immunodeficiency virus 1, PANEL 45, L210W + T215Y): 5.51 µM | IC50 (HIV; Human immunodeficiency virus 1, PANEL 46, D67N + K70E): 7.73 µM | IC50 (HIV; Human immunodeficiency virus 1, PANEL 47, D67N + K70E + M184V): 7.25 µM | IC50 (HIV; Human immunodeficiency virus 1, PANEL 48, K70E + M184V): 9.91 µM | IC50 Fold Change (HIV; PANEL 1, WT): 1.01 | IC50 Fold Change (HIV; PANEL 2, WT): 1.01 | IC50 Fold Change (HIV; PANEL 3, 6 TAMs, no 184): 1.59 | IC50 Fold Change (HIV; PANEL 6, 6 TAMs + 184): 2.06 | IC50 Fold Change (HIV; PANEL 7, 184V): 1.38 | IC50 Fold Change (HIV; PANEL 9, 69ins, no 184): 4.04 | IC50 Fold Change (HIV; PANEL 12, 69ins + 184): 4.43 | IC50 Fold Change (HIV; PANEL 14, 65R, no 184): 1.67 | IC50 Fold Change (HIV; PANEL 15, 65R + 184V): 2.61 | IC50 Fold Change (HIV; PANEL 17, L74V): 1.63 | IC50 Fold Change (HIV; PANEL 19, L74V + M184V): 2.01 | IC50 Fold Change (HIV; PANEL 26, 151M, no 184): 12.00 | IC50 Fold Change (HIV; PANEL 28, 151M + 184): 11.00 | IC50 Fold Change (HIV; PANEL 29, L74V − SDM): 1.48 | IC50 Fold Change (HIV; PANEL 30, M184V − SDM): 1.23 | IC50 Fold Change (HIV; PANEL 31, K65R − SDM): 2.00 | IC50 Fold Change (HIV; PANEL 33, T215Y): 1.14 | IC50 Fold Change (HIV; PANEL 34, T215Y + M184V): 1.43 | IC50 Fold Change (HIV; PANEL 35, M41L + T215Y): 1.14 | IC50 Fold Change (HIV; PANEL 37, M41L + T215Y + M184V): 1.84 | IC50 Fold Change (HIV; PANEL 38, M41L + L210W + T215Y): 1.36 | IC50 Fold Change (HIV; PANEL 39, M41L + L210W + T215Y): 1.07 | IC50 Fold Change (HIV; PANEL 40, M41L + L210W + T215Y + M184V): 1.49 | IC50 Fold Change (HIV; PANEL 41, M41L + L210W + T215Y + M184V): 1.57 | IC50 Fold Change (HIV; PANEL 42, D67N + K70R): 1.19 | IC50 Fold Change (HIV; PANEL 44, D67N + K70R + T215F + K219E + M184V): 1.57 | IC50 Fold Change (HIV; PANEL 45, L210W + T215Y): 1.00 | IC50 Fold Change (HIV; PANEL 46, D67N + K70E): 1.41 | IC50 Fold Change (HIV; PANEL 47, D67N + K70E + M184V): 1.32 | IC50 Fold Change (HIV; PANEL 48, K70E + M184V): 1.80 | Antagonism Volume, Result 1 (HIV-1IIIB): −1.01 nM^2 %, μM^2 % or nMμM % | Synergy Volume, Result 1 (HIV-1IIIB): 3.38 nM^2 %, μM^2 % or nMμM %

CC(C)CN(C[C@@H](O)[C@H](Cc1ccccc1)NC(=O)O[C@H]1CO[C@H]2OCC[C@H]21)S(=O)(=O)c1ccc(N)cc1 [Darunavir (DRV), darunavir]
Antagonism Volume, Result 1 (HIV-1IIIB): 0 nM^2 %, μM^2 % or nMμM % | Antagonism Volume, Result 2 (HIV-1IIIB): −2.31 nM^2 %, μM^2 % or nMμM % | Antagonism Volume, Result 3 (HIV-1IIIB): 0 nM^2 %, μM^2 % or nMμM % | Mean Antagonism Volume (n = 3) (HIV-1IIIB): −0.54 nM^2 %, μM^2 % or nMμM % | Mean Synergy Volume (n = 3) (HIV-1IIIB): 43.2 nM^2 %, μM^2 % or nMμM % | Synergy Volume, Result 1 (HIV-1IIIB): 109 nM^2 %, μM^2 % or nMμM % | Synergy Volume, Result 2 (HIV-1IIIB): 11.5 nM^2 %, μM^2 % or nMμM % | Synergy Volume, Result 3 (HIV-1IIIB): 9.48 nM^2 %, μM^2 % or nMμM %

Cc1cc(C#N)cc(C)c1Oc1nc(Nc2ccc(C#N)cc2)nc(N)c1Br [Etravirine (ETV), etravirine]
Antagonism Volume, Result 1 (HIV-1IIIB): −0.75 nM^2 %, μM^2 % or nMμM % | Antagonism Volume, Result 2 (HIV-1IIIB): 0 nM^2 %, μM^2 % or nMμM % | Antagonism Volume, Result 3 (HIV-1IIIB): −0.87 nM^2 %, μM^2 % or nMμM % | Mean Antagonism Volume (n = 3) (HIV-1IIIB): −0.29 nM^2 %, μM^2 % or nMμM % | Mean Synergy Volume (n = 3) (HIV-1IIIB): 69.0 nM^2 %, μM^2 % or nMμM % | Synergy Volume, Result 1 (HIV-1IIIB): 34.9 nM^2 %, μM^2 % or nMμM % | Synergy Volume, Result 2 (HIV-1IIIB): 106 nM^2 %, μM^2 % or nMμM % | Synergy Volume, Result 3 (HIV-1IIIB): 67.4 nM^2 %, μM^2 % or nMμM % | Interpretation of Antiviral Results (MacSynergy) (HIV-1IIIB; two-drug combination (with CMX157; control d4T/RBV), CEM-SS cells): slightly synergistic

CC(C)(C)NC(=O)[C@@H]1C[C@@H]2CCCC[C@@H]2CN1C[C@@H](O)[C@H](Cc1ccccc1)NC(=O)[C@H](CC(N)=O)NC(=O)c1ccc2ccccc2n1 [Saquinavir (SQV), saquinavir]
Antagonism Volume, Result 1 (HIV-1IIIB): −2.54 nM^2 %, μM^2 % or nMμM % | Antagonism Volume, Result 2 (HIV-1IIIB): −0.81 nM^2 %, μM^2 % or nMμM % | Antagonism Volume, Result 3 (HIV-1IIIB): 0 nM^2 %, μM^2 % or nMμM % | Mean Antagonism Volume (n = 3) (HIV-1IIIB): −1.12 nM^2 %, μM^2 % or nMμM % | Mean Synergy Volume (n = 3) (HIV-1IIIB): 45.2 nM^2 %, μM^2 % or nMμM % | Synergy Volume, Result 1 (HIV-1IIIB): 123 nM^2 %, μM^2 % or nMμM % | Synergy Volume, Result 2 (HIV-1IIIB): 8.35 nM^2 %, μM^2 % or nMμM % | Synergy Volume, Result 3 (HIV-1IIIB): 3.93 nM^2 %, μM^2 % or nMμM %
